In ChEMBL document CHEMBL3988442, “University of Dundee, Small-Polar-MMV Screening Library” (2021):
Values joined by “and” are separate entries in the source; they are usually repeats but may differ in a detail not shown here. Identical values can stand only once.

How the values were obtained:
[1] = molecular target: Polyketide synthase Pks13 (Mycobacterium tuberculosis (strain ATCC 25618 / H37Rv), UniProt I6X8D2); experiment: Mycobacterium tuberculosis Polyketide synthase 13 Thioesterase (PKS13); assay type: functional
[2] = microbe, parasite or virus in culture; settings: Mycobacterium tuberculosis, 96 h, read-out: pIC50 (converted)
[3] = microbe, parasite or virus in culture; settings: Mycobacterium tuberculosis, 72 h, read-out: pIC50 (converted)
[4] = molecular target: ClpP1P2 (Mycobacterium tuberculosis (strain ATCC 25618 / H37Rv), UniProt P9WPC3+P9WPC5); experiment: in vitro assay to detect presence of AMC directly proportional to the activity of ClpP1P2. GHDDI collaboration.; assay type: functional
[5] = system: Plasmodium falciparum; experiment: Calibr Malaria Delayed Death Assay SOP; assay type: functional, organism-based; settings: for IC50: Plasmodium falciparum

SMILES | IC50 [1] | further results
COc1ccc(CC(C)Nc2cccc(SC)c2)cc1 (stereo not drawn) | 24.5 µM and 22 µM | IC50 [2]: 45.4 µM; IC50 [3]: > 50.1 µM
CCC1(CC)Cc2ccccc2-c2nc(NCCCO)[nH]c(=O)c21 | 21.9 µM and 23.7 µM | IC50 [4]: > 100 µM
Cc1nc2c(Nc3cccc(C#N)c3)nc(N)nc2n1C | > 100 µM | IC50 [2]: 4.14 µM; IC50 [3]: 3.75 µM
CNC(=O)c1cc2c(nc1NCC(C)C)CCN(S(C)(=O)=O)CC2 | > 100 µM and 16.4 µM | IC50 [4]: > 100 µM
CNC(=O)c1cc2c(nc1NC(C)C)CCNCC2 | 60.3 µM and 25 µM | IC50 [4]: > 100 µM
CNC(=O)c1cc2c(nc1NCC1CC1)CCNCC2 | 72 µM and 24.7 µM | IC50 [4]: > 100 µM
CNC(=O)N1CCc2cc(C(=O)NCC3CC3)c(NC(C)C)nc2CC1 | 10.7 µM and 18.7 µM | IC50 [4]: > 100 µM
COc1ccccc1-c1ccnc2nc(N3CCCCC3)[nH]c(=O)c12 | 10.9 µM and 13.9 µM | IC50 [4]: > 100 µM
CCOc1cc(C(=O)n2cc(C)cn2)cc(OCC)c1OCC | 19.9 µM and 11.2 µM | IC50 [2]: > 50.1 µM; IC50 [3]: 29.7 µM
Cc1nn(C)cc1C1=NS(=O)(=O)N(C)C(C(=O)Nc2ccc(Br)cc2)=C1 | 28.6 µM and 36.6 µM | pIC50 [5]: 6.699; IC50 [5]: 238 nM
CCOC(=O)N1CCN(C(=O)C2CC(=O)N(c3ccccc3Br)C2)CC1 (stereo not drawn) | 19.4 µM and 22.4 µM | IC50 [2]: 9.89 µM; IC50 [3]: 39.8 µM
N#Cc1nccnc1N1CCC(CSc2ccccc2)C1 (stereo not drawn) | 18.6 µM and 20.2 µM | IC50 [2]: 4.96 µM; IC50 [3]: 18.9 µM
N#Cc1c(N2CCCN(C3CCOCC3)CC2)nc2ccccn12 | > 100 µM | 
Cc1cccc(COc2ccc(NC(=O)C(C)NC(N)=O)c(C)c2)c1 (stereo not drawn) | > 100 µM | 
COc1ccccc1N1CCC(CNS(=O)(=O)c2cccs2)C1 (stereo not drawn) | 10.3 µM and 4.51 µM | 
Cc1cccc(C(C)CNS(=O)(=O)CCCC#N)c1 (stereo not drawn) | > 100 µM | 
COc1ccc(C2CCCN2C(=O)c2cc3c([nH]c2=O)CCC3)cc1 (stereo not drawn) | 31.9 µM and 34.5 µM | 
CNC(=O)c1cnc(/C=C/c2cc(OC)cc(OC)c2)s1 | 29.1 µM and 11 µM | 
CN(C)c1nccc(-c2c[nH][nH]c2=O)n1 | > 100 µM | 
Cc1csc2ncc(-c3ccnc(N4CCCC4)n3)c(=O)n12 | > 100 µM | 
COc1ccc2[nH]cc(-c3ccnc(N4CCC(C)CC4)n3)c2c1 | 33.7 µM and 30 µM | 
CC[C@H](C)[C@H](N)C(=O)Nc1nc(-c2cnc(N(C)C)nc2)cs1 | > 100 µM | 
Cc1cn2c(=O)c(-c3ccnc(N4CCC[C@@H]4CO)n3)cnc2s1 | > 100 µM | 
CS(=O)(=O)NCc1cc(-c2cc(F)cc(F)c2)nc(N2CC[C@H](O)C2)n1 | > 100 µM | 
c1ccc2c(c1)CN(c1ncnc3sc4c(c13)CCNC4)CCO2 | > 100 µM | 
CC(=O)c1ccc(N2CCCC(CO)(CCc3ccccc3)C2)nc1 (stereo not drawn) | 72.2 µM and 69.8 µM | 

SMILES | IC50 [1] | further results
COCc1noc(-c2ccc(N(C)Cc3ccc(C)o3)nc2)n1 | > 100 µM | IC50 [2]: 18.1 µM
COCCc1noc(-c2cn(CCc3ccccc3)nn2)n1 | 20.8 µM and 8.65 µM | 
CCNc1ncc(C(=O)N2CCc3c(nc(C)nc3N(C)C)C2)cn1 | > 100 µM | 
Cc1n[nH]c(C)c1CCN(C)c1ccc(-c2nc(C3CC3)no2)cn1 | > 100 µM | 
C[C@H](NC(=O)c1cccc(CCC(C)(C)O)c1)C(N)=O | > 100 µM | 
Cc1ccc(C(=O)N2CCC3(CC2)c2ccccc2[C@@H](N)[C@@H]3O)c(=O)[nH]1 | > 100 µM | 
CN(C)C[C@@H]1[C@H]2CN(C(=O)c3cc(=O)[nH]c4ccc(F)cc34)C[C@@H]12 | 98.5 µM and > 100 µM | 
N#Cc1cccc(N2CCCC(CO)(CCOc3ccccc3)C2)n1 (stereo not drawn) | 34.6 µM and 6.67 µM | 
CC(C)c1nc(CN2CCc3onc(-c4cccc(F)c4)c3C2)no1 | > 100 µM | 
O=c1[nH]c2cc3c(cc2cc1CN1CCCC1c1ccccn1)OCO3 (stereo not drawn) | > 100 µM and 70.3 µM | 
CCC[C@H]1CN(S(C)(=O)=O)C[C@@H]1NC(=O)c1ccc(COC)cc1 | > 100 µM | 
COc1cccc(C(=O)N2CCc3c(nc(N)[nH]c3=O)C2)c1C | > 100 µM | 
Cc1n[nH]c(SCC(=O)N2C[C@H]3CC[C@@H]2CN(c2ncccn2)C3)n1 | > 100 µM | 
COc1cccc(-c2noc(-c3ccc(NCC(C)C)nc3)n2)c1OC | 15.7 µM and 26.8 µM | 
COCC1CCN(C(=O)c2cc(-c3ccco3)nc3c(Cl)cccc23)C1 (stereo not drawn) | 34.6 µM and > 100 µM | 
CN1CC2(CCCN(Cc3nnc(-c4ccco4)o3)CC2)OC1=O (stereo not drawn) | > 100 µM | 
COc1cccc(N2CCN(C(=O)C(O)c3ccccc3Cl)CC2=O)c1 (stereo not drawn) | > 100 µM | 
CC1(C(=O)NCc2cccnc2Oc2ccc(F)c(F)c2)CCCNC1 (stereo not drawn) | > 100 µM | 
CCOc1ccc2nc(CN3CCOC(CN)C3)ccc2c1 (stereo not drawn) | > 100 µM | 
c1cnc(N2CCC3(CCCN(CC4CCCCC4)C3)C2)cn1 (stereo not drawn) | > 100 µM | 
COc1ccc(CCC(C)Nc2cccc(SC)c2)cc1 (stereo not drawn) | 23 µM and 23.6 µM | IC50 [2]: 14.3 µM; IC50 [3]: 14.1 µM
CCC(C)Nc1ccc(-c2nc(-c3cccc(OC)c3OC)no2)cn1 (stereo not drawn) | 28.7 µM and 14 µM | 
Nc1cc(C(=O)NCC2CCN(Cc3ccncc3F)C2)ccn1 (stereo not drawn) | > 100 µM | 
Cc1ccc(-c2cc(C(=O)NCCCc3csc(N)n3)[nH]n2)s1 | 9.27 µM and 17 µM | 
O=C(O)[C@]12CCCN(Cc3ccccn3)[C@@H]1CCN(c1cnccn1)C2 | > 100 µM | 
CCc1[nH]c2c(CNc3nc(C)cc(NC)n3)cc(C)cc2c1C | > 100 µM | pIC50 [5]: 6.194; IC50 [5]: 657 nM; IC50 [2]: 30.7 µM; IC50 [3]: 23.7 µM

SMILES | IC50 [1] | further results
N#Cc1cccnc1N1CCCC(CO)(Cc2cccc(Cl)c2)C1 (stereo not drawn) | 26.7 µM and 23.5 µM | 
Cn1cc(-c2ccnc(NCC3CCN(Cc4ccccc4)C3)n2)cn1 (stereo not drawn) | > 100 µM and 60.6 µM | 
COCCN1CCCC2(CCN(c3nccnc3N(C)C)C2)C1=O (stereo not drawn) | > 100 µM | 
CCN1CCC(N[C@@H]2CC[C@@H]2NC(=O)Cc2csc(C)n2)CC1 | > 100 µM | 
N#Cc1cccc(N2CCC(CO)(CCOc3ccccc3)CC2)n1 | 48.2 µM and 33.8 µM | 
O=C(O)C1c2nc[nH]c2CCN1Cc1ccccc1-c1ccccc1 (stereo not drawn) | > 100 µM | 
Cc1nn(C)cc1-c1ccnc(N(C)Cc2ccoc2)n1 | > 100 µM | 
CCOCCN1CCN([C@@H]2c3ccccc3C3(CCNCC3)[C@H]2O)CC1 | > 100 µM | 
CCOCCC(=O)N1CCc2cccc(S(=O)(=O)N3CCOCC3)c2C1 | > 100 µM and 20.4 µM | 
N#Cc1cccc(N2CCC(CO)(CCCc3ccccc3)CC2)n1 | > 18.6 µM and 25.5 µM | 
CCN1CC(C(=O)N2CCN(c3nsc4ccccc34)CC2)CCC1=O (stereo not drawn) | 90.7 µM and 73 µM | 
O=C(c1cnccn1)N1C[C@@H]2CC[C@H](C1)N(S(=O)(=O)c1cccnc1)C2 | > 100 µM | 
CSc1ccc2cc(CN(C)CCO)c(=O)[nH]c2c1 | 31.4 µM | 
OCC1(CCOc2ccccc2)CCCN(c2ccc(Cl)cn2)C1 (stereo not drawn) | 29 µM and 32.3 µM | 
CSCc1ccc(N2CCC(C(O)Cc3ccccc3)CC2)nc1 (stereo not drawn) | > 100 µM | 
O=S(=O)(c1c(N2CCCCC2)ccc2nonc12)N1CCCCC1 | 26.1 µM and 29.2 µM | 
O=c1[nH]c(NC2CCCC2)nc2nccc(-c3cccs3)c12 | 8.33 µM and 21.7 µM | 
COc1cccc(-c2cc(NCC(=O)O)nc3[nH]ccc23)n1 | 29.9 µM and 35.7 µM | 
COc1ccc2c(C(=O)N(C)C)cc(-c3cnc(N)nc3)nc2c1 | 30.4 µM and 38.7 µM | 
CCn1cc(-c2cc(C(F)F)n3nc(CC(=O)O)nc3n2)cn1 | 15.7 µM and 16.4 µM | 
NC(=O)CSc1nccc(-c2ccc3c(c2)OCO3)n1 | 20 µM and 18.9 µM | 
Cn1cc(-c2cc(C(F)F)n3nc(CCC(=O)O)nc3n2)cn1 | 12 µM and 19.8 µM | 
Cc1cnn(CC(C)NCC(=O)NCCOc2ccccc2)c1 (stereo not drawn) | > 100 µM | 
CCOCC1CCCN(C(=O)NCc2ccc(-c3ccn[nH]3)cc2)C1 (stereo not drawn) | > 100 µM | 
CCc1nnc(CN2CCOC(Cn3cc(C)cn3)C2)o1 (stereo not drawn) | > 100 µM | 
O=C(c1cnc2c(cnn2C2CCCC2)c1)N1CCN(CCO)CC1 | > 100 µM | 

SMILES | IC50 [1] | further results
CCN(Cc1nc2c(cnn2C)c(=O)[nH]1)c1ccccc1 | > 100 µM | 
COCc1nc(C(=O)N2CCCC2c2ccc(OC)cc2)cs1 (stereo not drawn) | > 100 µM | 
c1csc(-c2noc(CCCN3CCCC3Cn3cncn3)n2)c1 (stereo not drawn) | > 100 µM | 
O=C(c1cc2cc(F)ccc2[nH]1)N1CCC(Nc2ccc(F)cc2)CC1 | > 100 µM and 12.6 µM | 
CC(C)(C)c1cc(NC(=O)CN2CCC(N3CCNC3=O)CC2)on1 | > 100 µM | 
O=C(O)c1csc(S(=O)(=O)Nc2cccc(OCC(F)(F)F)c2)c1 | 36 µM and 20.4 µM | 
CCc1nc2n(n1)CC(NCc1ncc(-c3ccccc3)o1)CC2 (stereo not drawn) | > 100 µM | 
Cc1nc(-c2ccc(Cl)s2)sc1C(=O)NCCS(N)(=O)=O | 33.3 µM and 21 µM | 
Cn1ccc(C(=O)NC2CCN(c3ncccn3)CC2)cc1=O | > 100 µM | 
Cc1cccc(-c2ccc(C(=O)NCC(C)(C)C(N)=O)c(=O)[nH]2)c1 | 25 µM and 32 µM | 
CC(O)CN1CCC(CNCc2c[nH]nc2C(C)(C)C)CC1 (stereo not drawn) | > 100 µM | IC50 [2]: 35.4 µM; IC50 [3]: 45.6 µM
CC(O)CN1CCC(CNCc2cccc(C(N)=O)c2)CC1 (stereo not drawn) | > 100 µM | 
Cc1ccc(CNC(=O)NCCCn2nc3ccccn3c2=O)s1 | > 100 µM | 
CC(NC(=O)Nc1cccnc1N1CCCC1)c1nncn1C (stereo not drawn) | > 100 µM | 
Cc1ccc(-c2ncc(C(=O)NCCNc3ncccn3)s2)c(C)c1 | 12 µM and 14.8 µM | 
CC(NC(=O)CN(C)S(C)(=O)=O)c1nnc2n1CCCCC2 (stereo not drawn) | > 100 µM | 
Cn1ccc(C(=O)NCc2cccc(CN3CCCC3)c2)cc1=O | > 100 µM | 
CN(CC1CCCCC1)C(=O)c1ccc(-n2ncc(C#N)c2N)cc1 | 40.8 µM and 6.64 µM | 
Cn1ccc(C(=O)NCc2cccc(NC(=O)C3CCC3)c2)cc1=O | > 100 µM | 
CC(C)c1nc(CN(C)C2CCN(CCNS(C)(=O)=O)C2)no1 (stereo not drawn) | > 100 µM | 
CC(C)Nc1nc2c(cc1C(=O)NCC1CC1)CCN(S(C)(=O)=O)CC2 | 20.5 µM and 23.8 µM | IC50 [4]: > 100 µM
COc1cccc(CN2CCC3(COCc4cnc(N(C)C)nc43)C2)c1 (stereo not drawn) | > 100 µM | IC50 [2]: > 50.1 µM; IC50 [3]: > 50.1 µM
CNC(=O)c1cc2c(nc1NCC(C)C)CCN(c1ccncn1)CC2 | 25.7 µM and 29.5 µM | IC50 [4]: > 100 µM
CNC(=O)c1cc2c(nc1NCC1CC1)CCN(S(C)(=O)=O)CC2 | 14.8 µM and 22.2 µM | IC50 [4]: > 100 µM
CC(C)Nc1nc2c(cc1C(=O)NCC1CC1)CCN(CC1CC1)CC2 | 14.7 µM and 35.6 µM | IC50 [4]: > 100 µM
CC(C)Nc1nc2c(cc1C(=O)NCC1CC1)CCN(C)CC2 | 30.6 µM and 15.6 µM | IC50 [4]: > 100 µM
